Test results from patent US20140357654A1, “METHODS OF TREATING SCHIZOPHRENIA WITH PHENYLALANINE ENAMIDE DERIVATIVE INHIBITORS OF a4 INTEGRIN POSSESSING A CYCLOBUTENE GROUP” (AESTUS THERAPEUTICS, INC., priority 2011, published 2014).

Tested on: Male Sprague-Dawley rats
Assay: Reversal of PCP-induced deficit in prepulse inhibition of the acoustic startle response (PPI)
Assay type: in vivo, rat
Details: for reversal of PCP-induced deficit in PPI, percent PPI averaged for all three prepulse intensities: average of 69, 73 and 81 dB, FIG. 2; for reversal of PCP-induced deficit in PPI, percent PPI averaged for all three prepulse intensities / reversal of PCP-induced deficit in PPI: 50 mg/kg p.o., adult male rats; for effect on pre-pulse inhibition: 10 and 50 mg/kg p.o. 45 min before PCP 2.5 mg/kg i.p.; for reversal of PCP-induced deficit in PPI: prepulse intensity 73 dB, FIG. 1
Procedure: Male Sprague-Dawley rats weighing 210-250 g at time of experiment were used. Animals were housed in a temperature and humidity controlled environment and allowed free access to food and water prior to use.
The amplitude of the inherent startle response varies considerably from animal to animal. The gain of the platforms must be calibrated to ensure that the average startle waveform falls within the desired range. To this end, baseline studies were conducted before the full PPI protocol to allow the calibration of the platforms to be fine-tuned to the startle waveform amplitude. This also allows the animals to become acclimatised to the testing equipment prior to drug administration.
Animals were placed in restraining holders and transferred to the designated chamber. Once all holders were securely fastened to the platform, the Baseline protocol was started. This consists of: • Acclimation Period: Animals were exposed to 5 minutes of 65 decibel (dB) background noise (white noise). • Block 1: 10× startle stimulus alone (white noise, 120 dB, 40 ms) • Block 2: 6× startle stimulus alone • 6× pre-pulse plus startle stimulus (pure tone, 16 dB above background noise, • 20 ms) followed 100 ms later by the startle stimulus. • During this time, the amplitude of the startle responses was recorded. On completion of this protocol, the sensitivity of the equipment was re-calibrated where necessary by adjusting the gain settings.
The same group of rats was again subjected to the Baseline protocol described above. Again, on completion of this protocol, the sensitivity of the equipment was re-calibrated where necessary by adjusting the gain settings. […] These animals were then returned to their home cages for subsequent dosing with compound.
The study compounds were suspended from dry powder stocks in Vehicle (5% Tween 80/5% PEG/saline) and sonicated for 60 minutes at 37° C. to generate suspensions suitable for oral dosing. Control rats received Vehicle by oral gavage. PCP was dissolved in sterile saline (0.9% NaCl).
Rats were dosed with either saline (0.9% NaCl) or 2.5 mg/kg PCP by intraperitoneal injection 15 minutes prior to PPI testing.
(2 S)-2-(2-Bromo-3-oxo-spiro[3.5]non-1-en-1-ylamino)-3-[4-([2,7]naphthyridin-1-ylamino)phenyl]proprionic acid or Clozapine was administered orally by gavage 45 minutes before challenge with PCP or saline. (2S)-2-(2-Bromo-3-oxo-spiro[3.5]non-1-en-1-ylamino)-3-[4-([2,7]naphthyridin-1-ylamino)phenyl]proprionic acid was administered at 10 mg/kg and 50 mg/kg. Clozapine was administered at 5 mg/kg. Vehicle control rats received Vehicle (5% Tween 80/5% PEG/saline) by oral gavage 45 minutes before challenge with PCP or saline.
Exactly 15 minutes after the injection of PCP or saline, the full PPI protocol was started. Animals were exposed to 5 minutes of 65 dB background noise (white noise) as an acclimation period, before the acoustic stimuli began. • Block 1: 6× startle stimulus alone (white noise, 120 dB, 40 ms) • Block 2: 14× startle stimulus • 8× no pulse • 30× pre-pulse (10 each of 4, 8, and 16 dB above the background noise) followed 100 ms later by the startle stimulus. This corresponds to intensities of 69, 73 and 81 dB, respectively. A total of 52 trials were presented to the animals in this block in a pseudo-random order with a variable interval of 8 to 23 seconds, averaging 15 s between trials). • Block 3: 6× startle stimulus alone
Pre-pulse inhibition was calculated from trials in Block 2 by the following formula:
% PPI=(100×[(pulse alone score)−(prepulse+pulse score)]/pulse alone

In the case of O=C(O)[C@H](Cc1ccc(Nc2nccc3ccncc23)cc1)NC1=C(Br)C(=O)C12CCCCC2 [(2S)-2-(2-Bromo-3-oxo-spiro[3.5]non-1-en-1-ylamino)-3-[4-([2,7]naphthyridin-1-ylamino)phenyl]proprionic acid], the “reversal of PCP-induced deficit in PPI, percent PPI averaged for all three prepulse intensities” value (50 mg/kg) is reported as “reversal”, the “reversal of PCP-induced deficit in PPI, percent PPI averaged for all three prepulse intensities” value (listed as MGCD-0103, 50 mg/kg) is reported as “significantly (p<0.05) reversed” and the “effect on pre-pulse inhibition” value (prepulse intensity 69 dB (4 dB above background), rats) is reported as “did not have a statistically significant effect”. The “ability to attenuate the PCP-induced deficit in PPI” value (prepulse intensity 73 dB (8 dB above background), dose not specified (10 and 50 mg/kg p.o. tested), rats) was “more evident”, the “reversal of PCP-induced deficit in PPI” value (50 mg/kg) was “reversal” and the “reversal of PCP-induced deficit in PPI” value (listed as MGCD-0103, 50 mg/kg) was “significantly (p<0.05) reversed”. The “effect on pre-pulse inhibition” value (prepulse intensity 81 dB (16 dB above background), rats) was “did not have a statistically significant effect”.
